According to patent US5041567A, “Antibacterial monic acid derivatives” (Beecham Group plc, priority 1982, dated 1991):
Converted amounts (≈) assume the structure as drawn. Like-named read-outs stand apart in the source and are kept apart here.

What was measured:
M. suipneumoniae HK(2) = experiment: MIC against mycoplasma in vitro; type: cell-based; conditions: Mesomycoplasma hyopneumoniae, 144 h
M. suipneumoniae LABER = experiment: MIC against mycoplasma in vitro; type: cell-based; conditions: Mesomycoplasma hyopneumoniae, 144 h
M. suipneumoniae UCD 1 = experiment: MIC against mycoplasma in vitro; type: cell-based; conditions: Mesomycoplasma hyopneumoniae, UCD1, 144 h
[1] = test system: M. suipneumoniae NCTC 10110; experiment: MIC against mycoplasma in vitro; type: cell-based; conditions: Mesomycoplasma hyopneumoniae, NCTC10110, 144 h
M. hyorhinis ATCC 23234 = experiment: MIC against mycoplasma in vitro; type: cell-based; conditions: Mesomycoplasma hyorhinis, ATCC23234, 144 h
M. bovis NCTC 10131 = experiment: microbe, parasite or virus in culture; type: cell-based; conditions: NCTC10131, 144 h
M. gallisepticum S6 = experiment: MIC against mycoplasma in vitro; type: cell-based; conditions: Mycoplasmoides gallisepticum, 144 h; M. gallisepticum S6; 6 days, 37° C.; read-out: MIC
M. pneumoniae ATCC 15492 = experiment: MIC against mycoplasma in vitro; type: cell-based; conditions: Mycoplasmoides pneumoniae, ATCC15492, 144 h; M. pneumoniae ATCC 15492; 6 days, 37° C.; read-out: MIC
E. coli NCTC 10418 [2] = experiment: MIC against human bacteria in vitro; type: cell-based; conditions: Escherichia coli, NCTC10418; E. coli NCTC 10418; agar with 5% chocolated horse blood, 18 hours, 37° C.; read-out: MIC
Strep. pneumoniae CN33 = experiment: MIC against human bacteria in vitro; type: cell-based; conditions: Streptococcus pneumoniae; Strep. pneumoniae CN33; 5% chocolated horse blood agar, 18 hours; read-out: MIC
E. coli NCTC 10418 [3] = experiment: MIC against veterinary bacteria in vitro; conditions: Escherichia coli, NCTC10418, 18 h
Method: (§1) The activity of the compounds of the Examples against various veterinarily important bacteria, was assayed in vitro using two-fold serial dilutions in Diagnostic Sensitivity Test Agar inoculated with 10^4 organisms.

E. coli E1 = experiment: MIC against veterinary bacteria in vitro; conditions: Escherichia coli, E1, 18 h
Method: as §1

S. typhimurium S18 = experiment: MIC against veterinary bacteria in vitro; conditions: Salmonella enterica, TYPHIMURIUM, 18 h
Method: as §1

Bord. bronchiseptica B08 = experiment: MIC against veterinary bacteria in vitro; conditions: Bordetella bronchiseptica, B08, 18 h
Method: as §1

Bord. bronchiseptica B09 = experiment: MIC against veterinary bacteria in vitro; conditions: Bordetella bronchiseptica, B09, 18 h
Method: as §1

Past. multocida PA2 = experiment: MIC against veterinary bacteria in vitro; conditions: Pasteurella multocida, PA2, 18 h
Method: as §1

Past. haemolytica PA5 = experiment: MIC against veterinary bacteria in vitro; conditions: Mannheimia haemolytica, PA5, 18 h
Method: as §1

[4] = test system: Erysipelothrix rhusiopathiae NCTC 8163; experiment: MIC against veterinary bacteria in vitro; conditions: Erysipelothrix rhusiopathiae, NCTC8163, 18 h
Method: as §1

[5] = test system: Staph. aureus 152 (pen. sens); experiment: MIC against veterinary bacteria in vitro; conditions: Staphylococcus aureus, 18 h
Method: as §1

Staph. aureus Oxford = experiment: MIC against veterinary bacteria in vitro; conditions: Staphylococcus aureus, 18 h
Method: as §1

Strep. dysgalactiae SPD1 = experiment: MIC against veterinary bacteria in vitro; conditions: Streptococcus dysgalactiae, SPD1, 18 h
Method: as §1

[6] = test system: M. suipneumoniae PW/C/210; experiment: MIC against mycoplasma in vitro; type: cell-based; conditions: Mesomycoplasma hyopneumoniae, 144 h; M. suipneumoniae PW/C/210; 6 days, 37° C.; read-out: MIC
[7] = test system: Haemophilus influenzae Q1; experiment: MIC against human bacteria in vitro; type: cell-based; conditions: Haemophilus influenzae Q1; 5% chocolated horse blood agar, 18 hours; read-out: MIC
[8] = M. suipneumoniae HK(2), 6 days, 37° C., read-out: MIC
[9] = M. suipneumoniae UCD 1, 6 days, 37° C., read-out: MIC
[10] = M. suipneumoniae NCTC 10110, 6 days, 37° C., read-out: MIC

| SMILES | MIC (M. suipneumoniae HK(2)) | MIC (M. suipneumoniae LABER) | MIC (M. suipneumoniae UCD 1) | MIC [1] | MIC (M. hyorhinis ATCC 23234) | MIC (M. bovis NCTC 10131) | MIC (M. gallisepticum S6) | MIC (M. pneumoniae ATCC 15492) | MIC (E. coli NCTC 10418 [2]) | MIC (Strep. pneumoniae CN33) | MIC (E. coli NCTC 10418 [3]) | MIC (E. coli E1) | MIC (S. typhimurium S18) | MIC (Bord. bronchiseptica B08) | MIC (Bord. bronchiseptica B09) | MIC (Past. haemolytica PA5) | MIC [4] | MIC [5] | MIC (Staph. aureus Oxford) | MIC (Strep. dysgalactiae SPD1) | other results |
| --- | --- | --- | --- | --- | --- | --- | --- | --- | --- | --- | --- | --- | --- | --- | --- | --- | --- | --- | --- | --- | --- |
| C/C(=C\c1cc(C)on1)C[C@@H]1OC[C@H](C[C@@H]2O[C@H]2[C@@H](C)[C@H](C)O)[C@@H](O)[C@H]1O [Example 33, 5-Methyl-3-(1-normon-2-yl) isoxazole A] | 2.5 µg/mL (≈ 6.55 µM) | 2.5 µg/mL (≈ 6.55 µM) | 1 µg/mL (≈ 2.62 µM) | 2.5 µg/mL (≈ 6.55 µM) | 1 µg/mL (≈ 2.62 µM) | 0.25 µg/mL (≈ 0.655 µM) | > 10 µg/mL | 10 µg/mL (≈ 26.2 µM) | > 128 µg/mL | 32 µg/mL (≈ 83.9 µM) | > 80 µg/mL | > 80 µg/mL | > 80 µg/mL | > 80 µg/mL | > 80 µg/mL | 20 µg/mL (≈ 52.4 µM) | > 80 µg/mL | 2.5 µg/mL (≈ 6.55 µM) | 2.5 µg/mL (≈ 6.55 µM) | 5 µg/mL (≈ 13.1 µM) | MIC (Past. multocida PA2): 0.625 µg/mL (≈ 1.64 µM) |
| C/C(=C\c1cc(-c2ccccc2)no1)C[C@@H]1OC[C@H](C[C@@H]2O[C@H]2[C@@H](C)[C@H](C)O)[C@@H](O)[C@H]1O [Example 31, 5-(1-Normon-2-yl)-3-phenylisoxazole A] | – | – | – | – | – | 1 µg/mL (≈ 2.25 µM) | > 10 µg/mL | > 10 µg/mL | > 128 µg/mL | > 128 µg/mL | > 80 µg/mL | > 80 µg/mL | > 80 µg/mL | > 80 µg/mL | 80 µg/mL (≈ 180 µM) | > 80 µg/mL | > 80 µg/mL | 10 µg/mL (≈ 22.5 µM) | 20 µg/mL (≈ 45.1 µM) | > 80 µg/mL | MIC (M. suipneumoniae HK(2); [8]): 10 µg/mL (≈ 22.5 µM); MIC (M. suipneumoniae LABER; M. suipneumoniae LABER, 6 days, 37° C., read-out: MIC): 10 µg/mL (≈ 22.5 µM); MIC (M. suipneumoniae UCD 1; [9]): 10 µg/mL (≈ 22.5 µM); MIC [1, 10]: 10 µg/mL (≈ 22.5 µM); MIC (M. hyorhinis ATCC 23234; M. hyorhinis ATCC 23234, 6 days, 37° C., read-out: MIC): 5 µg/mL (≈ 11.3 µM) |
| C/C(=C\c1ncc(-c2ccc(CO)cc2)o1)C[C@@H]1OC[C@H](C[C@@H]2O[C@H]2[C@@H](C)[C@H](C)O)[C@@H](O)[C@H]1O [Example 13, 5-p-Hydroxymethylphenyl-2-(1-normon-2-yl) oxazole A] | – | – | – | – | 0.1 µg/mL (≈ 0.211 µM) | ≤ 0.01 µg/mL | 0.5 µg/mL (≈ 1.06 µM) | 0.5 µg/mL (≈ 1.06 µM) | > 128 µg/mL | 4 µg/mL (≈ 8.45 µM) | > 80 µg/mL | > 80 µg/mL | > 80 µg/mL | > 80 µg/mL | 20 µg/mL (≈ 42.2 µM) | 40 µg/mL (≈ 84.5 µM) | > 80 µg/mL | 1.25 µg/mL (≈ 2.64 µM) | 1.25 µg/mL (≈ 2.64 µM) | 0.625 µg/mL (≈ 1.32 µM) | MIC (M. suipneumoniae HK(2); [8]): 0.25 µg/mL (≈ 0.528 µM); MIC [6]: 0.1 µg/mL (≈ 0.211 µM); MIC (M. suipneumoniae UCD 1; [9]): 0.25 µg/mL (≈ 0.528 µM); MIC [1, 10]: 0.25 µg/mL (≈ 0.528 µM); MIC [7]: 0.5 µg/mL (≈ 1.06 µM); MIC (Past. multocida PA2): 0.312 µg/mL (≈ 0.659 µM) |
| C/C(=C\c1cc(-c2ccccc2)on1)C[C@@H]1OC[C@H](C[C@@H]2O[C@H]2[C@@H](C)[C@H](C)O)[C@@H](O)[C@H]1O [Example 34, 3-(1-Normon-2-yl)-5-phenylisoxazole A] | 2.5 µg/mL (≈ 5.64 µM) | 1 µg/mL (≈ 2.25 µM) | 2.5 µg/mL (≈ 5.64 µM) | 2.5 µg/mL (≈ 5.64 µM) | 2.5 µg/mL (≈ 5.64 µM) | 0.25 µg/mL (≈ 0.564 µM) | > 10 µg/mL | 5 µg/mL (≈ 11.3 µM) | > 128 µg/mL | 64 µg/mL (≈ 144 µM) | > 80 µg/mL | > 80 µg/mL | > 80 µg/mL | > 80 µg/mL | 40 µg/mL (≈ 90.2 µM) | > 80 µg/mL | > 80 µg/mL | 2.5 µg/mL (≈ 5.64 µM) | 5 µg/mL (≈ 11.3 µM) | 10 µg/mL (≈ 22.5 µM) | – |
